For 17 compounds, IC50, inhibition and GI50 results are on record in ChEMBL document CHEMBL1687910, “Isoindolinone inhibitors of the murine double minute 2 (MDM2)-p53 protein-protein interaction: structure-activity studies leading to improved potency” (J Med Chem, 2011).

Experiment [1] concerns the target T1, E3 ubiquitin-protein ligase Mdm2 (Homo sapiens, UniProt Q00987). Briefly: Inhibition of Mdm2 -p53 protein interaction by ELISA. A general note: ELISA stands for enzyme-linked immunosorbent assay.
Target sequence in this assay (Q00987 whole entry): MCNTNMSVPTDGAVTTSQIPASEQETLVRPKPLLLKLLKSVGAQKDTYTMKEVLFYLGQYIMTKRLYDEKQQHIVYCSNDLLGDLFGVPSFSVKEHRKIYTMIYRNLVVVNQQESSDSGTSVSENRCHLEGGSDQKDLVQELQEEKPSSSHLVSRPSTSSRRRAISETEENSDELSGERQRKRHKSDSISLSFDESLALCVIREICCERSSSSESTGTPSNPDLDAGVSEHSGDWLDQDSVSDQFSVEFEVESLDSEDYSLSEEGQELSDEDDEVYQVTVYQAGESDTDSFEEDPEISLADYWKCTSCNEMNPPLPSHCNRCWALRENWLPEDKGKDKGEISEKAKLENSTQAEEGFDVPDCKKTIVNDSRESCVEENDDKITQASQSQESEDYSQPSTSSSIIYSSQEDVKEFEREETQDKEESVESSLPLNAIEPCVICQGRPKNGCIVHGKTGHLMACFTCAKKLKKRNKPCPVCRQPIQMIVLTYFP
In experiment [2] the target is T1, E3 ubiquitin-protein ligase Mdm2. Briefly: Inhibition of Mdm2 -p53 protein interaction in human […] cells assessed as induction of p53 protein at 1 to 20 uM after 6 hrs by Western blot analysis. The class given is cell-based.
Target sequence in this assay (Q00987 whole entry, looked up): as the sequence (Q00987 whole entry) above
Experiment [3] has the same target. Briefly: Inhibition of Mdm2 -p53 protein interaction in human […] cells assessed as induction of p21 protein at 1 to 20 uM after 6 hrs by Western blot analysis. It counts as cell-based. Background: In western blotting, separated proteins are transferred to a membrane and probed.
Target sequence in this assay (Q00987 whole entry, looked up): as the sequence (Q00987 whole entry) above
Experiment [4] shares this target. Briefly: Inhibition of Mdm2 -p53 protein interaction in human […] cells assessed as induction of MDM2 protein at 1 to 20 uM after 6 hrs by Western blot analysis. It counts as cell-based.
Target sequence in this assay (Q00987 whole entry, looked up): as the sequence (Q00987 whole entry) above
Experiment [5] shares this target. Briefly: Inhibition of Mdm2 -p53 protein interaction in human […] cells assessed as induction of p53 protein at 10 uM after 6 hrs by Western blot analysis. It counts as cell-based.
Target sequence in this assay (Q00987 whole entry, looked up): as the sequence (Q00987 whole entry) above
Experiment [6] shares this target. Briefly: Inhibition of Mdm2 -p53 protein interaction in human […] cells assessed as induction of p21 protein at 10 uM after 6 hrs by Western blot analysis. The class given is cell-based.
Target sequence in this assay (Q00987 whole entry, looked up): as the sequence (Q00987 whole entry) above
The subject of a further experiment is SJSA-1. Briefly: Cytotoxicity against human SJSA1 cells after 72 hrs by sulforhodamine B assay. Particulars: SJSA-1, 72 h. The class given is functional. Background: Sulforhodamine B stains cellular protein and so reports cell mass.
Experiment [7] is described as follows: Cytotoxicity against human LS cells after 72 hrs by sulforhodamine B assay. The class given is functional.
Experiment [8] is described as follows: Cytotoxicity against human NGP cells after 72 hrs by sulforhodamine B assay. It counts as functional.
Experiment [9] has as its system HCT-116. Briefly: Cytotoxicity against human p53 expressing HCT116 cells after 72 hrs by sulforhodamine B assay. It counts as functional. Particulars: HCT-116, 72 h.
Experiment [10] relates to HCT-116. Briefly: Cytotoxicity against p53 deficient human HCT116 cells after 72 hrs by sulforhodamine B assay. It counts as functional. Particulars: HCT-116, 72 h.
In the next experiment the test system is SAOS-2. Briefly: Cytotoxicity against human Saos2 cells after 72 hrs by sulforhodamine B assay. The class given is functional. Particulars: SAOS-2, 72 h.

By pIC50 is commonly meant the IC50 on a negative log10 scale, so that one unit is a factor of ten. Read a high pIC50 as a small IC50. One may read the GI50 as the concentration giving 50% growth inhibition. A low value points to greater sensitivity of the cells.

pIC50: −log10 of the molar value. Calls of active or inactive are those of the source. No cut-off for these calls is given here.

`Nc1ccc(CCN2C(=O)c3ccccc3C2(O)c2ccc(Cl)cc2)cc1` (stereo unspecified) showed a pIC50 in [1] of 5.21. On the same count and under the same terms, the figure for `O=C(c1ccccc1)c1ccc(CN2C(=O)c3ccccc3C2(O)c2ccc(Cl)cc2)cc1` (stereo unspecified) is < 4.70; for `CCCN1C(=O)c2ccccc2C1(O)c1ccc(Cl)cc1` (stereo unspecified) it is 4.16; for `O=C1c2ccccc2C(O)(c2ccc(Cl)cc2)N1CCc1ccccc1` (stereo unspecified) it is 5.14. Regarding `O=C1c2ccccc2C(O[C@H]2CCC[C@H](O)CCC2)(c2ccc(Cl)cc2)N1Cc1ccc([N+](=O)[O-])cc1` (mixture of isomers), in experiment [1], the negative-log IC50 (pIC50) is 6.42. In addition, the inhibition result in experiment [2], in experiment [3] and in experiment [4] was “Dose-dependent effect” in each case.

As for `O=C1c2ccccc2C(OC[C@H]2CC[C@H](CO)CC2)(c2ccc(Cl)cc2)N1Cc1ccc([N+](=O)[O-])cc1` (mixture of isomers), the inhibition entry in experiment [5] and in experiment [6] was “Active” throughout. The inhibition result in experiment [2], in experiment [3] and in experiment [4] was “Dose-dependent effect” throughout. In [1], `O=C1c2ccccc2C(O[C@H]2CC[C@@H](O)C2)(c2ccc(Cl)cc2)N1Cc1ccc([N+](=O)[O-])cc1` (mixture of isomers) had a pIC50 of 6.40. In the case of `N#Cc1ccc(CN2C(=O)c3ccccc3C2(OCCCCO)c2ccc(Cl)cc2)cc1` (racemic), the pIC50 in [1] is 5.46. Take `O=C1c2ccccc2C(O)(c2ccc(Cl)cc2)N1Cc1cccc2ccccc12` (stereo unspecified): in experiment [1], the pIC50 is 4.33. In [1], `Cc1ccc(CN2C(=O)c3ccccc3C2(O)c2ccc(Cl)cc2)cc1` (stereo unspecified) had a negative logarithm of the IC50 (pIC50) of 4.82. In experiment [1], `O=C1c2ccccc2C(O)(c2ccc(Br)cc2)N1Cc1ccc([N+](=O)[O-])cc1` (stereo unspecified) gave a negative logarithm of the IC50 (pIC50) of 5.51.

Take `O=C1c2ccccc2C(O[C@H]2C=C[C@@H](O)C2)(c2ccc(Cl)cc2)N1Cc1ccccc1` (mixture of isomers): the negative logarithm of the IC50 (pIC50) in experiment [1] was 5.33. On to `CC(C)(CO)COC1(c2ccc(Cl)cc2)c2ccccc2C(=O)N1Cc1ccc([N+](=O)[O-])cc1` (racemic), for which the inhibition entry in [2], in experiment [3] and in experiment [4] was “Dose-dependent effect” in each case. As for `O=C1c2ccccc2C(OCC2(CO)CC2)(c2ccc(Cl)cc2)N1Cc1ccncc1` (racemic), in [1], the pIC50 was 3.60.

Consider `COc1ccc(C2=N[C@@H](c3ccc(Cl)cc3)[C@@H](c3ccc(Cl)cc3)N2C(=O)N2CCNC(=O)C2)c(OC(C)C)c1` [NUTLIN-3], for which the GI50 in the experiment on SJSA-1 came to 2.6 µM; in [7] it was 2.3 µM; in experiment [8], 2.1 µM; in the experiment with HCT-116 [9] it was 13 µM; in the experiment on HCT-116 [10], 34 µM; in the experiment on SAOS-2, 18 µM.

As for `N#Cc1ccc(CN2C(=O)c3ccccc3C2(O)c2ccc(Cl)cc2)cc1` (stereo unspecified), the pIC50 in [1] is 5.22. The compound `O=C1c2ccccc2C(O)(c2ccc(Cl)cc2)N1CCc1ccc([N+](=O)[O-])cc1` (stereo unspecified) gave a negative logarithm of the IC50 (pIC50) in experiment [1] of 5.21.
